PMC11943016, “TBG096 Ameliorates Memory Deficiency in AD Mouse Model via Promoting Neurogenesis and Regulation of Hsc70/HK2/PKM2/LAMP2A Signaling Pathway” (International Journal of Molecular Sciences, 2025)

Columns and labels:
[1] = Brain concentration after oral administration in rats (BBB passage); assay type: in vivo
Description: In the pharmacokinetic analysis, a total of […] female SD rats aged 8 weeks from Zhejiang Academy of Medical Sciences (Hangzhou, China) (permit number: ZJU20240191) were used. A total of 15 rats were randomly divided into the following groups: (i) control group, (ii) TBG096 (14 mg/kg) oral administration group, and (iii) TBG096 (14 mg/kg) intravenous administration group. TBG096 was administered orally (dissolved in soybean oil) or intravenously (dissolved in Milli-Q water containing 2% Tween 80 and 5% ethanol) at 14 mg/kg after 12 h of fasting. Then, the blood from the posterior ocular venous plexus of rats was taken at 5, 15, 30, 60, 90, 120, 180, and 240 min after administration. […]
The collected blood was placed in a centrifuge tube (containing 20 µL heparin sodium solution) and centrifuged at 3000 rpm for 10 min to obtain a supernatant (plasma). […] The residue was dissolved in 100 µL of mobile phase, vortexed for 0.5 min, and centrifuged at 12,000 rpm for 3 min, and the supernatant was then prepared for HPLC analysis (Supersil Phenyl 5 µm (4.6 × 200 mm), elution with MeCN/H2O containing 0.1% formic acid (plasma samples: 57% MeCN/H2O, brain samples: 56% MeCN/H2O) for 30 min, flow rate: 1 mL/min, sample size: 20 µL, detected at 284 nm) and HR ESI-TOF-MS analysis.

[2] = tested on: AMPK, p-AMPK, Hsc70, PKM2, HK2, LAMP2A, APP, Tau, p-Tau, Aβ oligomers; experiment: Western blot of cerebral cortex of HFD-induced AD mice; assay type: in vivo
Text: In experiments with the HFD-induced AD mouse model, a total of 60 Institute of Cancer Research (ICR) male mice aged 4 weeks from Zhejiang Academy of Medical Sciences (Hangzhou, China) were used for animal experiments (permit number: ZJU20230121). The animals were provided free access to a chow diet and water. […] The HFD and normal diet were alternated every two days to maintain freshness. Weekly measurements were taken for water intake, food intake, and body weight. In the eighteenth week, the mice underwent Y-maze and NOR tests. The Morris water maze test was conducted during the nineteenth week. After confirming the successful establishment of the AD model characterized by cognitive impairment, oral administration of treatments commenced. […] Each group had 10 mice.
Approximately 50 mg of cerebral cortex from brain tissues was homogenized in RIPA lysis buffer containing 1% protease inhibitor and 1% phosphatase inhibitor. Then, the sample was centrifuged at 12,000 rpm at 4 °C for 10 min, and the supernatant was transferred to a new tube. Protein concentrations were determined using the BCA kit, and 30 µg of protein from each sample was denatured by heating in water at 100 °C for 10 min. […] Finally, the strip was developed using chemiluminescence ECL reagent, and the blot density was quantified with ImageJ (National Institutes of Health, Bethesda, MD, USA).

BV-2 microglial cells = experiment: Anti-inflammatory activity in LPS-treated BV-2 cells (Iba1 fluorescence); assay type: cell-based; details: 24 h
Description: BV-2 cells were obtained from Nanjing CoBioer Biotechnology Ltd., Co., Nanjing, China, and cultured in RPMI 1640 medium (Roswell Park Memorial Institute 1640 medium, Gibco, Grand Island, NY, USA) supplemented with 10% FBS and 1% penicillin/streptomycin. The anti-inflammatory activity of samples in BV-2 cells was determined as follows. Approximately 5 × 10^4 cells were seeded in each well of a 24-well microplate and were cultured under a humidified atmosphere with 5% CO2 at 37 °C for 24 h. Then, the medium was replaced by 500 µL RPMI 1640 medium containing 0.5% DMSO or samples at different concentrations for 2 h, and 500 µL medium containing LPS (1 µg/mL) was added and incubated for 24 h. Next, the medium of each well was sucked out, and each well was washed with phosphate-buffered saline (PBS) three times and fixed with 4% paraformaldehyde (500 µL/well) for 20 min at room temperature. The fixative was discarded, washed with PBS, and blocked for 60 min. […] After that, the cell nucleus was stained with diluted DAPI (SouthernBiotech, Birmingham, AL, USA) for 10 min, and the fluorescence image of BV-2 cells was observed under the fluorescence inverted microscope. Three regions were randomly selected to be observed and recorded with pictures. Image J software version 1.8.0 (National Institutes of Health, Bethesda, MD, USA) was finally used to analyze the fluorescence density of BV-2 cells.

ICR mice = experiment: Acute toxicity experiment in mice; assay type: in vivo
Description: In the acute toxicity experiment of mice, a total of 40 ICR male mice aged 8 weeks from Zhejiang Academy of Medical Sciences (Hangzhou, China) were used. A standard experimental scheme was adopted according to the requirements of Zhejiang University Animal Experiment Ethics Committee (animal use license number: SYXK(Zhe)2019-0002, permit number: ZJU20230219). The mice were randomly divided into the following groups: (i) control group, (ii) TBG096 100 mg/kg group, (iii) TBG096 300 mg/kg group, and (iv) TBG096 600 mg/kg group. Each group had 10 mice. Soybean oil was used as a vehicle to dissolve TBG096. The body weight, food intake, and water consumption of mice in each group were recorded every day for two weeks. Blood was collected for biochemical index analysis.

With O=C(SCCCCCCSCCCC(F)(F)F)c1cccc(O)c1O [TBG096] the “ability to cross the BBB” value ([1]; brain samples 15 min after oral 14 mg/kg, HPLC and HR ESI-TOF-MS) was “has the ability to cross the BBB”, the concentration at 15 min ([1]; female, Sprague-Dawley, rat, brain, 15 min after single oral dose 14 mg/kg, rats) was 81.7 ± 6.81 ng/g and the “phosphorylated AMPK/AMPK, LAMP2A, Hsc70, HK2 and PKM2 protein levels” value [2] was “returned to normal”. The “APP, Tau, p-Tau, and Aβ oligomers protein expression” value ([2]; vs HFD) was “significantly reduced”, the “LPS-induced overactivation of BV-2 cells” value (BV-2 microglial cells) was “dose-dependently inhibited” and the “optimal concentration for inhibition of LPS-induced overactivation of BV-2 cells” value (BV-2 microglial cells) was 0.3 µM. For the same compound, the “acute toxicity in mice” value (ICR mice; mouse, in vivo) was “does not exhibit acute toxicity”, the “body weight, food intake, water consumption” value (ICR mice; oral 100, 300, and 600 mg/kg, two weeks, mice) was “no significant differences” and the “serum biochemical indices (AST, ALT, AST/ALT, ALB, DBIL)” value (ICR mice; oral 100, 300, and 600 mg/kg, vs control group, mice) was “no significant changes”.
